Test results: patent US11591324B2, “Retinoic acid receptor antagonists as chaperone-mediated autophagy modulators and uses thereof” (ALBERT EINSTEIN COLLEGE OF MEDICINE, priority 2013, dated 2023)
Starred links: 1 amine or outer side, 2 acyl side, 3 side chain; linkers in the order of their positions; H or OH if unused. Positions of bridges follow the written chain, without caps; N, C: chain ends. Non-standard residues stand in square brackets, D forms with d. Residues, ends and D or L forms follow the SMILES beside them. Chains are numbered I, II in the order given. Actinocin(9to1) = Cc1c2oc3c(C)ccc(C(=O)[*:1])c3nc-2c(C(=O)[*:2])c(N)c1=O; NMeV = CN[C@H](C(=O)O)C(C)C; Sar = CNCC(=O)O

Key:
[1] = tested on: chaperone-mediated autophagy (CMA); experiment: CMA reporter assay (photoactivable KFERQ-PA-mCherry1 reporter); assay type: cell-based, mouse; details: for CMA activity (fluorescent puncta per cell, CMA reporter): mouse fibroblasts, 20 μM
Excerpt: (§1) Autophagic measurements. […] Lysosomes from cultured cells were isolated by similar procedures but using instead discontinuous metrizamide/percoll gradients after rupture of the plasma membrane through nitrogen cavitation^33.
CMA reporter assay. The photoactivable CMA reporter was constructed by inserting a sequence of 21 amino acids of Ribonuclease A bearing the CMA-targeting motif in the N-terminus multicloning site of the photoactivable protein mCherry1 (PA-mCherry1)^30. […] All images were acquired with a high-resolution CCD camera after optical sectioning through the apotome. Images were prepared using Adobe Photoshop 6.0 software (Adobe Systems). Quantification was performed in individual frames after deconvolution and thresholding using ImageJ software (NIH) in a minimum of 50 cells.
Because the observed downregulation of macroautophagy upon RARα knock-down cannot explain the increase in lysosomal degradation observed in these cells (FIG. 1c), the effect of this intervention on CMA was measured. Activation of this selective autophagic pathway can be determined using a photoactivable (PA) reporter fused to the CMA-targeting motif (KFERQ-PA-mcherry1)^30. Activation of CMA favors mobilization of this artificial CMA substrate from the cytosol to lysosomes, which can be tracked as a change in the reporter fluorescence from a diffuse to a punctate pattern^30.

hRARα = target: T1, hRARα (Homo sapiens, UniProt P10276); experiment: RARα activity, RAR-responsive luciferase reporter; assay type: cell-based; details: for RARα antagonist activity (inhibition of ATRA-dependent luciferase): in combination with 100 nM ATRA
T1 construct: expressed in transfected cells; host or cells: mouse fibroblasts (NIH3T3)
Description: Measurement of RARα and RXR activity. A RAR-responsive luciferase construct was utilized to monitor the activity of RARα in cultured cells. Cells were co-transfected with pCMX-Gal-L-hRARα and a construct encoding the firefly luciferase reporter gene under the control of a minimal promoter and tandem repeats of the retinoic-acid response element (tk-px3-luc). Co-transfection with a renilla luciferase reporter plasmid was performed to control for efficiency of transfection. RXR activity was measured by similar procedures using co-transfection with pCMX-mRXR and tk-apoA1-luc. Compounds were added 24 h after transfection and 48 h later cells were lysed and assayed for luciferase activity using the Dual-Luciferase Reporter Assay System (Progmega). Luciferase values were normalized to the renilla luciferase reporter.
To determine the effect of these molecules on RAR signaling, cells were co-transfected cells with a plasmid coding for RAR fused to the Gal4 DNA-binding domain and a Gal4-dependent luciferase reporter.

[2] = tested on: chaperone-mediated autophagy (CMA); experiment: High content microscopy CMA assay (KFERQ-PS-dendra reporter); assay type: cell-based, mouse; details: for basal versus stress-induced CMA activation: presence or absence of serum
Description: CMA activity in mouse fibroblasts in culture was measured using a new version of a previously developed photoswitchable (PS) CMA fluorescent reporter^30 generated by addition of a CMA targeting motif to the PS-dendra protein (KFERQ-PS-dendra). Briefly, cells transduced with lentivirus carrying the reporter were photoactivated 24 h after transduction by exposure to a 3.5 mA (current constant), and 90V light emitting diode (LED: Norlux, 405 nm) for 9 min. Cells were plated in 96 well plates, subjected to the desired treatments and at the end of the experiment fixed in 4% paraformaldehyde. Images were captured with a high content microscope (Opperetta system, Perkin Elmer) and quantification was performed with the instrument software in a minimum of 200 cells or 9 fields.

[3] = tested on: mouse fibroblasts transfected with α-synuclein; experiment: α-synuclein plus PQ proteotoxicity (viability, immunoblot); assay type: cell-based; details: pre-treatment 20 μM before 1 mM PQ
Excerpt: Maintained chronic oxidation is a common feature of aging and an aggravating factor in multiple degenerative disorders. To model the detrimental effect of oxidative stress on proteotoxicity and analyze the possible beneficial effect of enhancing CMA activity in these conditions, cells were transfected with α-synuclein, the protein that accumulates in the form of intracellular aggregates in Parkinson's disease (PD) and previously identified as a bonafide CMA substrate^9,10. Although mutations in this protein have been associated to the familial forms of the disease, in more than 98% of PD patients the protein that accumulates in the protein inclusions is wild type. Consequently, different intracellular factors and aggressors, including oxidative stress, have been proposed to contribute to the idiopathic forms of this pathology. […] Although the presence of α-synuclein alone was not toxic for these cells, the toxicity of a fixed concentration of PQ was clearly dependent on the concentration of this protein present in the cell. The concentration of PQ added to these cells was adjusted so that in cells expressing low levels of α-synuclein, its toxic effect was limited to no more than 20% reduction in cellular viability. […]

RARα = target: T2, RARα (Mus musculus, UniProt P11416); experiment: RARα translocation to the nucleus; assay type: cell-based
T2 construct: endogenous in cells; host or cells: mouse fibroblasts (NIH3T3), inferred
T2 sequence (P11416 1-462): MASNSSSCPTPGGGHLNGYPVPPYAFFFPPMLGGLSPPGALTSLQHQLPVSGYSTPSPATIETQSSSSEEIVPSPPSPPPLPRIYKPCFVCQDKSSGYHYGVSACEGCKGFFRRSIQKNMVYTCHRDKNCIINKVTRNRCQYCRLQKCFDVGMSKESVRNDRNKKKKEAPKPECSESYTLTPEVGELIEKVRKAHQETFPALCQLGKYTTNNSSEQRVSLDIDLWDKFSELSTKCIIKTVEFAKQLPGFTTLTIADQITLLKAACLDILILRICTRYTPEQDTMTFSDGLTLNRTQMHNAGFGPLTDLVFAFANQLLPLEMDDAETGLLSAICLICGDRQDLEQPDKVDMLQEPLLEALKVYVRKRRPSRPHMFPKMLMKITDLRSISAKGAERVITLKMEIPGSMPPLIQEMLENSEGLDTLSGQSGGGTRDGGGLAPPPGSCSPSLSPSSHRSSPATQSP

macroautophagy (LC3-II) = experiment: Macroautophagy: LC3-II levels and flux (immunoblot, mCherry-GFP-LC3); assay type: cell-based; details: mouse fibroblasts; retinoid derivatives 20 μM
Excerpt: as §1
To directly analyze macroautophagy, a widely accepted assay was used to measure activity of this pathway based on the analysis of the intracellular levels and degradation of the lipid-conjugated form of the light chain protein type 3 (LC3-II), a constitutive component of autophagosomes^29. Steady-state levels of LC3-II provide information on the amount of autophagosomes present in a cell at a given time, whereas the amount of LC3-II that accumulates upon blockage of lysosomal proteolysis allows measuring the efficiency of fusion and degradation of autophagic vacuoles by lysosomes (autophagic flux). […] Immunofluorescence for LC3 in these cells confirmed the presence of higher content of LC3-positive vesicles in the cells defective for RARα. These vesicles were confirmed to be autophagosomes using a double tagged form of LC3 (mCherry-GPF-LC3) that due to quenching of GFP fluorescence at low pH highlights autophagosomes in yellow and lysosomes in red. […] An increase in autophagosome content can result from increased formation of these organelles (autophagosome induction) or from reduced clearance of autophagosomes by lysosomes. To differentiate between both possibilities, the autophagic flux was compared in control and RARα (−) cells.

[4] = tested on: mouse fibroblasts (NIH3T3); experiment: Intracellular protein degradation (metabolic labeling, pulse chase)
LAMP-2A = LAMP-2A mRNA levels (quantitative real time PCR)

T1 sequence (P10276 with tags, fused parts or gaps limits assumed): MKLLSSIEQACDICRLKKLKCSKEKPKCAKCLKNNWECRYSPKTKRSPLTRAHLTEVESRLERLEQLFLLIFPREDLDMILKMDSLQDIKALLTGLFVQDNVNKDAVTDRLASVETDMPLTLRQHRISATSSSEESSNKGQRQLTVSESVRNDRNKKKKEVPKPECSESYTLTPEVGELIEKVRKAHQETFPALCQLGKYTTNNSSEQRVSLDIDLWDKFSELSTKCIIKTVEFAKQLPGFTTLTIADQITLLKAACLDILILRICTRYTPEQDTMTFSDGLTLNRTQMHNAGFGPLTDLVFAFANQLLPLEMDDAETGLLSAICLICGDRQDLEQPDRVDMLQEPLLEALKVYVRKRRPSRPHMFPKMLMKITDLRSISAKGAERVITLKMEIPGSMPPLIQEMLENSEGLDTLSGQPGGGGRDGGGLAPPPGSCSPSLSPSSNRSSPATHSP

With Cc1c2oc3c(C)ccc(C(=O)N[C@@H]4C(=O)N[C@H](C(C)C)C(=O)N5CCC[C@H]5C(=O)N(C)CC(=O)N(C)[C@@H](C(C)C)C(=O)O[C@@H]4C)c3nc-2c(C(=O)N[C@@H]2C(=O)N[C@H](C(C)C)C(=O)N3CCC[C@H]3C(=O)N(C)CC(=O)N(C)[C@@H](C(C)C)C(=O)O[C@@H]2C)c(N)c1=O [Actinomycin D] (I: T[dV]P[Sar][NMeV] / II: T[dV]P[Sar][NMeV]; ester I:1-I:C, II:1-II:C; linker I:N-II:N via Actinocin(9to1)) the “stimulatory effect of AR7 on CMA under transcriptional repression” value ([1]; AR7 plus Actinomycin D) was “partially reduced the stimulatory effect of AR7 on CMA”.
In the case of Cc1ccc(C2=Nc3ccc(Cl)cc3OC2)cc1 [AR7], the “CMA activity (fluorescent puncta per cell, CMA reporter)” value ([1]; presence of serum) is reported as “marked activation of CMA activity”, the “RARα antagonist activity (inhibition of ATRA-dependent luciferase)” value (hRARα) is reported as “among the most potent antagonist compounds in the library” and the “basal versus stress-induced CMA activation” value [2] is reported as “only activated basal CMA”. The “cellular viability of α-synuclein-transfected cells treated with PQ” value [3] was “significant increases in cellular viability”, the “RARα relocation to the nucleus” value (RARα) was “sufficient to stimulate some relocation of cytosolic RARα to the nucleus” and the “macroautophagy: LC3 steady state levels and lysosomal flux” value (macroautophagy (LC3-II)) was “absence of effect on other autophagic pathways”.
Clc1ccc2c(c1)OCC(c1ccc(-c3ccccc3)cc1)=N2 [QX39] was tested, and the “CMA activation potency relative to AR7” value ([2]; cultured cells, photoactivatable CMA reporter) was 2-3 fold and the “basal versus stress-induced CMA activation” value [2] was “activated both basal and stress-induced CMA”.
For CC1=CC(=Cc2ccc(C(=O)NC(=N)N)cc2)CC(C)(C)C1 [GR1, N-[4-(3,5,5-trimethyl-cyclohex-2-enylidenemethyl)-benzoyl]-guanidine], the “CMA activity (fluorescent puncta per cell, CMA reporter)” value ([1]; presence of serum) was “marked activation of CMA activity” and the “macroautophagy: LC3 steady state levels and lysosomal flux” value (macroautophagy (LC3-II)) was “absence of effect on other autophagic pathways”.
In the case of CC1=C(/C=C/C(C)=C/C=C/C(C)=C/C(=O)O)C(C)(C)CCC1 [ATRA, all-trans-retinoic acid], the “basal CMA” value ([1]; ATRA treatment, presence of serum) is reported as “did not have a noticeable effect on basal CMA”, the “activation of CMA in response to serum removal” value ([1]; ATRA treatment, serum removal) is reported as “significantly reduced the activation of this pathway in response to serum removal” and the “effect on CMA activity in RARα (−) cells” value ([1]; RARα knock-down mouse fibroblasts) is reported as “no longer inhibited CMA activity in RARα (−) cells”. For the same compound, the “RARα agonist activity (luciferase)” value (hRARα; compound alone) was “dose-dependent activation”, the “protein degradation in response to prolonged serum removal” value ([4]; 40 μM ATRA, absence of serum) was “significantly reduced the increase in protein degradation” and the “lysosomal degradation (sensitive to inhibitors of lysosomal proteolysis)” value ([4]; 40 μM ATRA, basal and inducible) was “both basal and inducible lysosomal degradation were significantly compromised”. For the same compound, the “total rates of protein degradation, basal” value ([4]; 40 μM ATRA, presence of serum) was “did not affect total rates of protein degradation under basal conditions”, the “inhibitory effect on autophagic degradation of cytosolic proteins in RARα (−) cells” value ([4]; ATRA, RARα knock-down) was “still detectable when RARα (−) cells were supplemented with ATRA” and the “LAMP-2A mRNA levels, serum deprived” value (LAMP-2A; ATRA added to cells deprived of serum) was “significant decrease in LAMP-2A mRNA”. For the same compound, the “LAMP-2A mRNA levels, basal” value (LAMP-2A; ATRA, basal conditions) was “No changes in LAMP-2A mRNA levels” and the “macroautophagy: LC3 steady state levels and lysosomal flux” value (macroautophagy (LC3-II)) was “no significant changes in steady state levels of LC3 or in its lysosomal flux”.
For CC1(C)CC=C(c2cnc3ccccc3c2)c2cc(C(=O)Nc3ccc(C(=O)O)cc3)ccc21 [BMS614], the “CMA activity (fluorescent puncta per cell, CMA reporter)” value ([1]; presence of serum) was “also enhanced CMA activity” and the “macroautophagy: LC3 steady state levels and lysosomal flux” value (macroautophagy (LC3-II)) was “inhibited macroautophagy”.
In the case of CC1=CC(=Cc2ccc(C(=O)NC(=N)N)cc2)CCC1 [GR2, N-[4-(3-methyl-cyclohex-2-enylidenemethyl)-benzoyl]-guanidine], the “CMA activity (fluorescent puncta per cell, CMA reporter)” value ([1]; presence of serum) is reported as “marked activation of CMA activity”, the “RARα antagonist activity (inhibition of ATRA-dependent luciferase)” value (hRARα) is reported as “among the most potent antagonist compounds in the library” and the “macroautophagy: LC3 steady state levels and lysosomal flux” value (macroautophagy (LC3-II)) is reported as “absence of effect on other autophagic pathways”.
